For 30 compounds, IC50 results are on record in patent US9765018B2, “IDO inhibitors” (BRISTOL-MYERS SQUIBB COMPANY, priority 2013, dated 2017).

Sequence of IDO (P14902 whole entry): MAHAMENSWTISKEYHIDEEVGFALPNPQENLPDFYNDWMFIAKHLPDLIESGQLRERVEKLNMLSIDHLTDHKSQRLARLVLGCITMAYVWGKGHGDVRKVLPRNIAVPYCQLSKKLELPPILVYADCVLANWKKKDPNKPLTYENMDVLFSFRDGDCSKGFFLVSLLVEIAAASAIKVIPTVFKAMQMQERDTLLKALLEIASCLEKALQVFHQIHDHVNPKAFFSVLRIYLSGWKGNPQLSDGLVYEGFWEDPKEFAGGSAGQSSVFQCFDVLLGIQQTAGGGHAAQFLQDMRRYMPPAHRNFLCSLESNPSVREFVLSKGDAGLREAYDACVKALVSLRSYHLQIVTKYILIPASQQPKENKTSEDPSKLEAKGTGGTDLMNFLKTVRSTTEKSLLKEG

The assay addresses IDO (Homo sapiens (Human), UniProt P14902). In words: Kynurenine assay in IFN-γ-stimulated Hela cells. In kind it is cell-based. The conditions noted are these: 20 h, read-out: Hela Kyurenine (IC50). How it is done: Reagents: Hela cells (ATCC, CCL-2)
IFNg (R&D, 28-IF-100)—resuspend at 10 ug/mL in PBS with 0.1% BSA 30% TCA
Ehrlich reagent (2% w/v p-dimethylaminobenzaldehyde in glacial acetic acid)
Cell Lines and Culture Conditions
Hela cancer cell lines were acquired from the American Type Culture Collection. Cells were maintained in phenol red free-RPMI1640 medium containing high glucose and L-glutamine (Invitrogen) supplemented with 10% fetal bovine serum (FBS; Invitrogen). Cell cultures were incubated at 37° C., 5% CO2, and 100% humidity.
Cell Treatment and Kynurenine Assay
Hela cells were seeded on 96-well plates (40,000 cells per well) and allowed to adhere for 5-6 hours. Cells were then treated with vehicle (DMSO) or with IDO inhibitor at a top dose of 30 μM (3-fold dilution all the way down to 1.5 nM). A final concentration of 100 ng/mL of human recombinant IFN-γ (R&D, 28-IF-100) was immediately added to the cells to stimulate IDO expression. Treated cells were then incubated for 20 hours at 37° C. At the end of the 20 h incubation, reactions were terminated by the addition of 30% TCA to each well. Plates were incubated for 30 minutes at 50° C. to hydrolyze N-formylkynurenine to kynurenine. Cells were centrifuged 10 minutes at 2400 rpm. 100 ul of supernatants were transferred to new 96 flat well plates and mixed with 100 ul Ehrlich reagent. The resulting solution was incubated 10 minutes at RT. Absorbance at 490 nm was read using Spectra Max 384 (Molecular Devices).
With `COc1ccc(-c2ccc(Oc3ccccc3C(C)(C)C)c(NC(=O)Nc3cccc(F)c3)c2)cc1C(=O)O` [Example 84, 4′-(2-(tert-butyl)phenoxy)-3′-(3-(3-fluorophenyl)ureido)-4-methoxy-[1,1′-biphenyl]-3-carboxylic acid], the IC50 turned out to be 160 nM.
To `COc1ccc(-c2ccc(Oc3ccccc3C(C)(C)C)c(NC(=O)Nc3cccc(Cl)c3)c2)cc1C(=O)O` [Example 85, 4′-(2-(tert-butyl)phenoxy)-3′-(3-(3-chlorophenyl)ureido)-4-methoxy-[1,1′-biphenyl]-3-carboxylic acid] belongs 110 nM; to `COc1cccc(NC(=O)Nc2cc(-c3ccc(OC)c(C(=O)O)c3)ccc2Oc2ccccc2C(C)(C)C)c1` [Example 86, 4′-(2-(tert-butyl)phenoxy)-3′-(3-(3-methoxyphenyl)ureido)-4-methoxy-[1,1′-biphenyl]-3-carboxylic acid], 230 nM; to `COc1ccc(NC(=O)Nc2cc(-c3ccc(OC)c(C(=O)O)c3)ccc2Oc2ccccc2C(C)(C)C)cc1` [Example 87, 4′-(2-(tert-butyl)phenoxy)-3′-(3-(4-methoxyphenyl)ureido)-4-methoxy-[1,1′-biphenyl]-3-carboxylic acid], 280 nM.
Consider `COc1ccc(-c2ccc(Oc3ccccc3C(C)(C)C)c(NC(=O)NC(C)(C)C)c2)cc1C(=O)O` [Example 88, 4′-(2-(tert-butyl)phenoxy)-3′-(3-(tert-butyl)ureido)-4-methoxy-[1,1′-biphenyl]-3-carboxylic acid], for which the IC50 came out at 130 nM.
To `CCCNC(=O)Nc1cc(-c2ccc(OC)c(C(=O)O)c2)ccc1Oc1ccccc1C(C)(C)C` [Example 89, 4′-(2-(tert-butyl)phenoxy)-3′-(3-(n-propyl)ureido)-4-methoxy-[1,1′-biphenyl]-3-carboxylic acid] belongs 120 nM; to `CCCCNC(=O)Nc1cc(-c2ccc(OC)c(C(=O)O)c2)ccc1Oc1ccccc1C(C)(C)C` [Example 90, 4′-(2-(tert-butyl)phenoxy)-3′-(3-(n-butyl)ureido)-4-methoxy-[1,1′-biphenyl]-3-carboxylic acid], 260 nM; to `COc1ccc(-c2ccc(Oc3ccccc3C(C)(C)C)c(NC(=O)NC3CCCCC3)c2)cc1C(=O)O` [Example 91, 4′-(2-(tert-butyl)phenoxy)-3′-(3-(cyclohexyl)ureido)-4-methoxy-[1,1′-biphenyl]-3-carboxylic acid], 250 nM.
For the compound `COc1ccc(-c2ccc(Oc3ccccc3C(C)(C)C)c(NC(=O)Nc3cccc(C)c3C)c2)cc1C(=O)O` [Example 92, 4′-(2-(tert-butyl)phenoxy)-3′-(3-(2,3-dimethylphenyl)ureido)-4-methoxy-[1,1′-biphenyl]-3-carboxylic acid], the concentration for half-maximal inhibition (IC50) was found to be 240 nM.
To `COc1ccc(NC(=O)Nc2cc(-c3ccc(OC)c(C(=O)O)c3)ccc2Oc2ccccc2C(C)(C)C)c(C)c1` [Example 93, 4′-(2-(tert-butyl)phenoxy)-4-methoxy-3′-(3-(4-methoxy-2-methylphenyl)ureido)-[1,1′-biphenyl]-3-carboxylic acid] belongs 620 nM.
Turning to `COc1ccc(-c2ccc(Oc3ccccc3C(C)(C)C)c(NC(=O)Nc3cc(C)ccc3C)c2)cc1C(=O)O` [Example 95, 4′-(2-(tert-butyl)phenoxy)-3′-(3-(2,5-dimethylphenyl)ureido)-4-methoxy-[1,1′-biphenyl]-3-carboxylic acid], the IC50 was found to be 260 nM.
For the compound `COc1ccc(-c2ccc(Oc3ccccc3C(C)(C)C)c(NC(=O)Nc3ccc(C)c(C)c3)c2)cc1C(=O)O` [Example 96, 4′-(2-(tert-butyl)phenoxy)-3′-(3-(3,4-dimethylphenyl)ureido)-4-methoxy-[1,1′-biphenyl]-3-carboxylic acid], the concentration for half-maximal inhibition (IC50) came to 180 nM.
To `COc1ccc(-c2ccc(Oc3ccccc3C(C)(C)C)c(NC(=O)Nc3cccc(Cl)c3C)c2)cc1C(=O)O` [Example 98, 4′-(2-(tert-butyl)phenoxy)-3′-(3-(3-chloro-2-methylphenyl)ureido)-4-methoxy-[1,1′-biphenyl]-3-carboxylic acid] belongs 160 nM.
To `COc1ccc(-c2ccc(Oc3ccccc3C(C)(C)C)c(NC(=O)Nc3ccc(C(C)(C)C)cc3)c2)cc1C(=O)O` [Example 99, 4′-(2-(tert-butyl)phenoxy)-3′-(3-(4-(tert-butyl)phenyl)ureido)-4-methoxy-[1,1′-biphenyl]-3-carboxylic acid] belongs 220 nM; to `COc1ccc(-c2ccc(Oc3ccccc3C(C)(C)C)c(NC(=O)Nc3ccc(C)cc3F)c2)cc1C(=O)O` [Example 100, 4′-(2-(tert-butyl)phenoxy)-3′-(3-(2-fluoro-4-methylphenyl)ureido)-4-methoxy-[1,1′-biphenyl]-3-carboxylic acid], 470 nM; to `COc1ccc(-c2ccc(Oc3ccccc3C(C)(C)C)c(NC(=O)Nc3ccc(N(C)C)cc3)c2)cc1C(=O)O` [Example 101, 4′-(2-(tert-butyl)phenoxy)-3′-(3-(4-(dimethylamino)phenyl)ureido)-4-methoxy-[1,1′-biphenyl]-3-carboxylic acid], 1010 nM.
For the compound `COc1ccc(-c2ccc(Oc3ccccc3C(C)(C)C)c(NC(=O)Nc3ccc4c(c3)CCC4)c2)cc1C(=O)O` [Example 102, 4′-(2-(tert-butyl)phenoxy)-3′-(3-(2,3-dihydro-1H-inden-5-yl)ureido)-4-methoxy-[1,1′-biphenyl]-3-carboxylic acid], the half-inhibitory concentration (IC50) is 220 nM.
`COc1ccc(-c2ccc(Oc3ccccc3C(C)(C)C)c(NC(=O)Nc3cc(Cl)ccc3Cl)c2)cc1C(=O)O` [Example 104, 4′-(2-(tert-butyl)phenoxy)-3′-(3-(2,5-dichlorophenyl)ureido)-4-methoxy-[1,1′-biphenyl]-3-carboxylic acid]: the IC50 was found to be 100 nM.
Take `COc1ccc(-c2ccc(Oc3ccccc3C(C)(C)C)c(NC(=O)Nc3ccc(Cl)c(Cl)c3)c2)cc1C(=O)O` [Example 105, 4′-(2-(tert-butyl)phenoxy)-3′-(3-(3,4-dichlorophenyl)ureido)-4-methoxy-[1,1′-biphenyl]-3-carboxylic acid]: the half-maximal inhibitory concentration (IC50) was 370 nM.
Consider `COc1ccc(-c2ccc(Oc3ccccc3C(C)(C)C)c(NC(=O)Nc3cccc(C#N)c3)c2)cc1C(=O)O` [Example 108, 4′-(2-(tert-butyl)phenoxy)-3′-(3-(3-cyanophenyl)ureido)-4-methoxy-[1,1′-biphenyl]-3-carboxylic acid], for which the half-maximal inhibitory concentration (IC50) amounted to 720 nM.
Then `COc1ccc(Cl)cc1NC(=O)Nc1cc(-c2ccc(OC)c(C(=O)O)c2)ccc1Oc1ccccc1C(C)(C)C` [Example 109, 4′-(2-(tert-butyl)phenoxy)-3′-(3-(5-chloro-2-methoxyphenyl)ureido)-4-methoxy-[1,1′-biphenyl]-3-carboxylic acid], with 600 nM; and `C#CCNC(=O)Nc1cc(-c2ccc(OC)c(C(=O)O)c2)ccc1Oc1ccccc1C(C)(C)C` [Example 119, 4′-(2-tert-butylphenoxy)-4-methoxy-3′-(3-prop-2-ynylureido)biphenyl-3-carboxylic acid], with 780 nM; and `CC(C)(C)c1ccccc1Oc1ccc(-c2ccccc2C(=O)O)cc1NC(=O)Nc1ccccc1Cl` [Example 155, 4′-(2-tert-butylphenoxy)-3′-(3-(2-chlorophenyl)ureido)biphenyl-2-carboxylic acid], with 450 nM.
Take `Cc1cccc(NC(=O)Nc2cc(-c3ccc(Cl)cc3C(=O)O)ccc2Oc2ccccc2C(C)(C)C)c1` [Example 160, 4′-(2-tert-butylphenoxy)-4-chloro-3′-(3-m-tolylureido)biphenyl-2-carboxylic acid]: the IC50 was 1320 nM.
For `CC(C)(C)c1ccccc1Oc1ccc(-c2ccccc2-c2nnn[nH]2)cc1NC(=O)Nc1ccccc1Cl` [Example 179, 1-(4-(2-tert-butylphenoxy)-2′-(1H-tetrazol-5-yl)biphenyl-3-yl)-3-(2-chlorophenyl)urea], the 50% inhibitory concentration (IC50) came to 210 nM.
On to `Cc1cccc(NC(=O)Nc2cc(-c3ccccc3-c3nnn[nH]3)ccc2Oc2ccccc2C(C)(C)C)c1` [Example 182, 1-(4-(2-tert-butylphenoxy)-2′-(1H-tetrazol-5-yl)biphenyl-3-yl)-3-m-tolylurea], for which the half-inhibitory concentration (IC50) was 1050 nM.
With `CC(C)(C)c1ccccc1Oc1ccc(-c2ccccc2-c2nnn[nH]2)cc1NC(=O)Nc1ccccc1C(F)(F)F` [Example 183, 1-(4-(2-tert-butylphenoxy)-2′-(1H-tetrazol-5-yl)biphenyl-3-yl)-3-(2-(trifluoromethyl)phenyl)urea], the IC50 was 690 nM.
As to `O=C(Nc1ccccc1)Nc1cc(-c2ccccc2-c2nnn[nH]2)ccc1Oc1cccc2c1CCCC2` [Example 184, 1-phenyl-3-(4-(5,6,7,8-tetrahydronaphthalen-1-yloxy)-2′-(1H-tetrazol-5-yl)biphenyl-3-yl)urea], the concentration for half-maximal inhibition (IC50) was 1100 nM.
As for `O=C(Nc1ccccc1Cl)Nc1cc(-c2ccccc2-c2nnn[nH]2)ccc1Oc1cccc2c1CCCC2` [Example 186, 1-(2-chlorophenyl)-3-(4-(5,6,7,8-tetrahydronaphthalen-1-yloxy)-2′-(1H-tetrazol-5-yl)biphenyl-3-yl)urea], the IC50 came to 1130 nM.
To `Cc1ccccc1NC(=O)Nc1cc(-c2ccc(C(=O)O)cc2)ccc1Oc1ccccc1C(C)(C)C` [Example 200, 4′-(2-tert-butylphenoxy)-3′-- (3-o-tolylureido) biphenyl-4-carboxylic acid] belongs 1520 nM.
